Measurements reported in article PMC6770577, “TRPM6 N-Terminal CaM- and S100A1-Binding Domains” (International Journal of Molecular Sciences, 2019).

Target: T1, S100A1 (Homo sapiens, UniProt P23297)
T1 construct: made in house; host or cells: E. coli BL21
T1 sequence (P23297 1-94): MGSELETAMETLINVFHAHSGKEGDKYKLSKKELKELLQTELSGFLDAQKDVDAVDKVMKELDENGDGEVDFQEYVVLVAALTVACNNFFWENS
Experiment: Steady-state fluorescence anisotropy binding assay, FITC-labelled TRPM6np peptides titrated with S100A1
Details: 1 μM N-terminally FITC-labelled peptide titrated with 100 μM S100A1, 50 mM Tris-HCl pH 7.5, 150 mM NaCl, 2 mM CaCl2, room temperature, at least five measurements, read-out: KD, equilibrium dissociation constant of the TRPM6np/S100A1 complex
Description: Steady-state fluorescence anisotropy experiments were performed at room temperature on a photon counting spectrometer PC1 (ISS Inc., Champaign, Illinois, USA). TRPM6npWT and its mutants were dissolved in a buffer containing 50 mM Tris-HCl (pH 7.5), 150 mM NaCl, and 2 mM CaCl2 for a final concentration of 1 μM. The samples were titrated in a 2-mm path cuvette with increasing aliquots of 100 μM CaM or S100A1. Fluorescence was excited at 495 nm; the intensity of emission in parallel (III) and perpendicular (I﬩) orientations to the direction of the polarised excitation was obtained at 520 nm by switching the emission polariser. The steady-state fluorescence anisotropy value (r) was calculated from the equation r = (III − I﬩) / (III + 2I﬩). […] Q represents the quantum yield ratio of the bound to the free peptide, calculated from fluorescence lifetimes (τ) according to equation Q = τbound/τfree. […]
Lifetimes were evaluated at room temperature in a drop placed on a coverslip and inserted into an inverted confocal microscope IX83 (Olympus, Tokyo, Japan) equipped with time-correlated single photon counting electronics and cooled GaAsP hybrid detectors (all PicoQuant, Berlin, Germany). […] fluorescence was excited at 485 nm by an LDH-485 picosecond laser (PicoQuant, Berlin, Germany). […]

| SMILES | Kd [µM] |
| --- | --- |
| CC[C@H](C)[C@H](NC(=O)[C@H](CC(C)C)NC(=S)Nc1ccc2c(c1)C(=O)OC21c2ccc(O)cc2Oc2cc(O)ccc21)C(=O)NCC(=O)N[C@@H](CCCNC(=N)N)C(=O)N[C@@H](C)C(=O)N[C@@H](Cc1ccc(O)cc1)C(=O)N[C@@H](CCCNC(=N)N)C(=O)N[C@@H](CO)C(=O)N[C@@H](CC(N)=O)C(=O)N[C@@H](Cc1ccc(O)cc1)C(=O)N[C@H](C(=O)N[C@@H](C)C(=O)N[C@@H](C)C(=O)N[C@@H](Cc1c[nH]cn1)C(=O)N[C@@H](Cc1ccccc1)C(=O)N[C@@H](CCCNC(=N)N)C(=O)O)[C@@H](C)O [K532A/R531A] | 50.2 |
| CC[C@H](C)[C@H](NC(=O)[C@H](CC(C)C)NC(=S)Nc1ccc2c(c1)C(=O)OC21c2ccc(O)cc2Oc2cc(O)ccc21)C(=O)NCC(=O)N[C@@H](CCCNC(=N)N)C(=O)N[C@@H](C)C(=O)N[C@@H](Cc1ccc(O)cc1)C(=O)N[C@@H](CCCNC(=N)N)C(=O)N[C@@H](CO)C(=O)N[C@@H](CC(N)=O)C(=O)N[C@@H](Cc1ccc(O)cc1)C(=O)N[C@H](C(=O)N[C@@H](CCCNC(=N)N)C(=O)N[C@@H](C)C(=O)N[C@@H](Cc1c[nH]cn1)C(=O)N[C@@H](Cc1ccccc1)C(=O)N[C@@H](CCCNC(=N)N)C(=O)O)[C@@H](C)O [K532A] | 24.8 |
